Test results as given in patent publication US4639459A, “Use of trifluoromethyl compounds” (priority 1985, dated 1987).

Legend:
[1] = human, in vivo; cited from earlier work
[2] = Pharmacokinetic studies comparing relative distribution in brain and plasma; conditions: rodents

In the case of Cc1ccc(/C(=C\CN2CCCC2)c2ccccn2)cc1 [Triprolidine, (E)-1-(4-methylphenyl)-1-(2-pyridyl)-3-pyrrolidinoprop-1-ene], the sedation and drowsiness [1] is listed as “produces sedation and drowsiness in varying degrees in most patients”.

With O=C(O)/C=C/c1cccc(/C(=C/CN2CCCC2)c2ccc(C(F)(F)F)cc2)n1 [Compound of Formula (I), (E)-3-{6-[3-Pyrrolidino-1(4-Trifluoromethylphenyl)prop-1E-enyl]-2-pyridyl}acrylic acid] the “penetration of the brain” value [2] was “does not readily penetrate the brains of rodents”.
